Laboratory results from paper PMC12040169 (PLOS Biology, 2025).

Assay: in vitro
Settings: human, hela cells, % viability

Compound	viability at 28.5 h, 10 µM
Cc1cccc2cc3c(nc12)OCCN(C)C3 [CBK285192]	89.1%
Cc1nc(NC(CC(C)C)C(=O)O)c2nc(C)oc2n1 (stereo not drawn) [CBK022157]	115%
CN(C)S(=O)(=O)c1ccc(-c2nn(-c3ccccc3)cc2/C=C(\C#N)c2nc3ccccc3c(=O)[nH]2)cc1 [CBK266266]	101%
O=C(Cn1cnc2c(Cl)cc(Cl)cc2c1=O)N1CCCCCC1 [CBK305874]	92%
O=C(c1ccccc1F)N1C[C@H](c2ccsc2)[C@H]2CN(Cc3ccccc3F)CC[C@H]21 [CBK285656]	97.4%
O=S(=O)(NCCCn1ccnc1)c1cc(Cl)ccc1Cl [CBK261767]	105%
O=C1c2cccc3cccc(c23)C(=O)N1CCN1CCN(CC(O)COc2ccccc2)CC1 (stereo not drawn) [CBK266255]	97.4%
CC(=O)NCCNC(=O)c1ccc(-c2cnc(OCC3CCN(C(=O)OC(C)(C)C)CC3)nc2)cn1 [CBK170023]	104%
Nc1ncc(-c2ccc3c(c2)OCO3)nc1N1CCC(C(=O)O)CC1 [CBK064074]	101%
O=C(CN1CCCC1=O)NC(Cc1cccs1)c1nccs1 (stereo not drawn) [CBK282177]	104%
CN(C)C(=O)C1(Cc2ccc(-c3cccs3)cc2)CCN(C(=O)Cc2ccccc2)CC1 [CBK285784]	93.2%
CN(Cc1ccccc1)C(=O)CNS(=O)(=O)c1ccc([N+](=O)[O-])cc1 [CBK268586]	107%
CC(=O)Nc1cccc(-c2cnc(N)c(N3CCN(C)CC3)n2)c1 [CBK063361]	107%
NC(=O)CSc1nnc(COc2ccc(Br)cc2)n1-c1ccccc1 [CBK267277]	101%
COc1ccc(C2CC(c3nc4ccccc4[nH]3)=NN2C(=O)CCN2CCCCC2)cc1 (stereo not drawn) [CBK267673]	99.8%
CC(=O)c1sc(NC(=O)c2ccccc2)nc1-c1ccccc1 [CBK287315]	87.8%
C[C@@H]1CN(Cc2ccco2)CCN1C(=O)c1nccc2ccccc12 [CBK285489]	99.8%
COc1cccc(-c2ccc(C(=O)NCCNC(C)=O)c(N3CCOCC3)n2)c1 [CBK076465]	86.3%
c1coc(CN2CCC(c3ccc4c(c3)OCO4)CC2)c1 [CBK284001]	90.3%
CN1CCC(N(C)C(=O)c2ccc3nccnc3c2)CC1 [CBK269096]	108%
CCOC(=O)c1ccc(NC(=O)Cc2c(C(=O)O)nnn2-c2cccc(C(F)(F)F)c2)cc1 [CBK296932]	106%
CCc1nccn1CCC(=O)NC1CCCN(Cc2ccccc2F)C1 (stereo not drawn) [CBK306652]	78.9%

Compound	viability at 28.5 h, 10 µM
CC(C)(O)Cc1ccccc1C(=O)NC1CCCCCC1 [CBK010502]	81.7%
Cc1ccn(CCNC(=O)c2cc3ccc(F)cc3[nH]2)n1 [CBK283209]	91.9%
S=C(Nc1cccc(Cl)c1Cl)Nc1nn(Cc2ccc(Cl)c(Cl)c2)cc1Cl [CBK267109]	109%
c1ccc(OCCOc2nccnc2-c2ccsc2)cc1 [CBK106773]	103%
C/C(=N/Nc1nc[nH]n1)c1ccc(Cl)c(Cl)c1 [CBK028722]	80%
CC(Cn1nnc2ccccc21)C(=O)O (stereo not drawn) [CBK264727]	117%
COc1cccc(-c2cnc(N(C)S(C)(=O)=O)c(C(=O)NC3CCCCC3)c2)c1 [CBK106446]	109%
O=C(CCCc1ccccc1)Nc1cccnc1N1CCNCC1 [CBK028256T]	93.1%
Cn1nccc1NS(=O)(=O)c1ccc(-c2cnco2)s1 [CBK062088]	94.4%
CCOC(=O)c1sc(-c2cccc(C(F)(F)F)c2)nc1O [CBK075064]	92%
O=C1Cc2ccccc2C2(CCN(C(=O)Nc3c(F)cccc3F)CC2)N1 [CBK047296]	89%
Cn1c(=O)c2ncn(CC(=O)Nc3ccc(N4CCN(Cc5ccccc5)CC4)cc3)c2n(C)c1=O [CBK266875]	99.7%
CCCC/C=C/c1cncc(NCc2ccc(OC)cc2)n1 [CBK037933]	96.7%
COC(=O)c1c(NC(=S)Nc2ccc(Br)cn2)sc2c1CCC2 [CBK266862]	92.9%
CC(C)Nc1nc2cc(Cl)c(Cl)cc2nc1Sc1nc[nH]n1 [CBK115261]	93.3%
CC(=O)NCc1cccc(-c2cncc(C(=O)Nc3ccc4c(c3)OCCO4)c2)c1 [CBK161009T]	82.1%
CCCN1CCC(CNC(=O)c2cc(C3CCCCC3)no2)CC1 [CBK283297]	98.2%
CCOC(=O)c1cnc2ccc(Cl)cc2c1N1CCOCC1 [CBK307627]	99.2%
COc1ccc(N2CCN(c3cncc(-c4cccc(N)c4)n3)CC2)cc1OC [CBK066126]	94.3%
O=C(Nc1cccnc1N1CCNCC1)c1ccc(-c2cccc(C(F)(F)F)c2)o1 [CBK034119T]	90.1%
O=C(Nc1ccc2[nH]ccc2c1)c1c(F)ccc(Cl)c1F [CBK159673]	78.6%
O=C(C[C@@H]1O[C@H](CNS(=O)(=O)c2ccccc2)[C@@H](O)[C@H]1O)N1CCc2ccccc21 [CBK288916]	91.2%

Compound	viability at 28.5 h, 10 µM
Cc1n[nH]c(C)c1CCCCCOc1ccccc1 [CBK027211C]	84.3%
CCNC(=O)CN(CC)S(=O)(=O)c1cccc(C#N)c1 [CBK306481]	90.1%
N#Cc1cccc(NC(=O)NC[C@H]2C[C@@H]3CC[N@]2C[C@@H]3CN2CCOCC2)c1 [CBK288763]	108%
O=c1[nH]c(=O)c2cc(S(=O)(=O)Nc3cccc(-c4ccc(F)cc4)c3)ccc2[nH]1 [CBK286394]	84.2%
O=C(CCCOc1ccccc1)NCc1ccc(OC2CCNCC2)cc1 [CBK028427T]	92.1%
COc1cc(Nc2cncc(-c3ccc(O)cc3)n2)c(Cl)cc1C(=O)NCC1CCCO1 (stereo not drawn) [CBK126468]	100%
C[C@@H]1CN(Cc2ccco2)[C@H](C)CN1CC(=O)Nc1nc2c(s1)CCCC2 [CBK286530]	100%
CCOc1oc2cc(O)ccc2c1C(=O)CSC1CCCCC1 [CBK022262]	87.1%
COc1ccccc1N1CCN(C(=O)c2c(Cl)cnn2C)CC1 [CBK288247]	94.3%
O=[N+]([O-])c1ccc(/C=N/c2ccc(Cc3ccc(/N=C/c4ccc([N+](=O)[O-])s4)cc3)cc2)s1 [CBK261228]	98.3%
CC(CNC(=O)c1cncc(Br)c1)NC(=O)c1cncc(Br)c1 (stereo not drawn) [CBK262040]	91.6%
O=C1CCC(=O)N1CCOc1nccnc1OC1CCN(Cc2ccccc2F)CC1 [CBK084337]	96.4%
Cc1c(C(=O)O)sc2ncn(CCCOc3ccc(Cl)cc3)c(=O)c12 [CBK286695]	106%
CCN1CCN(C(=O)CN(C)S(=O)(=O)c2ccc(Cl)cc2)CC1 [CBK267218]	100%
Cc1cc(CC(=O)N2CCC(Cn3cncn3)(C3CCCCC3)CC2)on1 [CBK136795]	88.8%
O=C(Cn1nnc2ccccc21)NC(c1ccccc1)c1ccccc1 [CBK297488]	110%
CN1CC(C(=O)N2CCCC(c3cc4cccnc4[nH]3)C2)CC1=O (stereo not drawn) [CBK284958]	92.5%
COc1ccc(S(=O)(=O)Nc2nccnc2-c2cccs2)cc1OC [CBK050774]	104%
O=C(O)CSc1nc2nc3c(cc2c(=O)n1Cc1ccccc1)CCCC3 [CBK286662]	86.4%
COc1cccc(C2Nc3ccc4ccccc4c3C3=C2C(=O)CC(C)(C)C3)c1OCC(=O)O (stereo not drawn) [CBK263045]	89.8%
CCc1ccc(CN(C(=O)c2cc(OC)c(OC)c(OC)c2)C2CCS(=O)(=O)C2)cc1 (stereo not drawn) [CBK293961]	98.4%
CN1CCN(c2nc(NS(=O)(=O)c3ccc(OC(F)(F)F)cc3)cc3ccccc23)CC1 [CBK002978C]	87.7%

Compound	viability at 28.5 h, 10 µM
Cc1n[nH]c(=S)n1-c1ccc(Cl)cc1 [CBK012457]	94.5%
O=C(O)CC(NCc1ccccc1)C(=O)Nc1cccc(F)c1 (stereo not drawn) [CBK266956]	92.3%
O=c1[nH]c2ccc(NC(=S)NCc3ccccc3)cc2[nH]1 [CBK296099]	93.8%
CN(C(=O)CN1CSCC1=O)c1nc2c(s1)CC(c1ccccc1)CC2 (stereo not drawn) [CBK305526]	91.6%
Cc1ccc(O)c(NC(=S)NC(=O)COc2ccccc2)c1 [CBK264373]	106%
O=C(NC(=O)C1CCNCC1)Nc1ccc(F)cc1F [CBK034793]	115%
CCc1c(C)nc2ccc(Br)cc2c1SCCC(=O)O [CBK126914]	113%
c1ccc2c(Sc3cncc(N4CCCC4)n3)cccc2c1 [CBK089594]	88.2%
O=C(O)CCCCCN1C(=O)/C(=C/c2ccc(O)c(O)c2)SC1=S [CBK262771]	91%
O=C1N=C(N2CCCCCC2)SC1CC(=O)N1CCCc2ccccc21 (stereo not drawn) [CBK063336]	93.4%
COC(=O)[C@@H]1Cc2ncn(C)c2CN1S(=O)(=O)c1ccc(C#N)cc1 [CBK288993]	83.9%
Cc1cc(Br)cc(C)c1NC(=O)CSc1nnc(COc2ccccc2Cl)o1 [CBK264968]	93%
O=C(Cn1nc(-c2ccco2)ccc1=O)Nc1ccccn1 [CBK287985]	87.4%
CCOC(=O)c1cnc(C2CC2)nc1NCc1cccc(C)c1C [CBK114707]	102%
O=C(O)C(Cc1ccc(O)cc1)c1ccccc1 (stereo not drawn) [CBK012287]	84.7%
Cc1ccc(C)c(S(=O)(=O)NCCCn2ccnc2)c1 [CBK262205]	109%
C[C@]1(CO)C2CC[C@H]3OC(=O)C[C@H]3[C@]2(C)CC[C@H]1OC(=O)Nc1ccccc1 (stereo partly drawn) [CBK289577]	84.5%
CC(C)C(=O)NC(NC(=S)Nc1cccc2cccnc12)C(Cl)(Cl)Cl (stereo not drawn) [CBK261051]	90%
COc1ccc(C)cc1S(=O)(=O)N(CC(=O)N1CCN(C)CC1)c1cccc(C(F)(F)F)c1 [CBK269355]	96.2%
Cc1cc(-c2cn3cc(C(=O)N4CCCC4)nc3c(=O)n2C)c(C)o1 [CBK307300]	83.3%

Same assay, conditions: human, hela cells, % viability, bulk resorufin, single well

Compound	viability at 28.5 h, 10 µM
Cc1ccccc1N1C(=O)/C(=N\Nc2ccc(S(=O)(=O)O)cc2)C(=O)NC1=S [CBK018165]	97.7%
